What all share (assay type): in vivo, BALB/c nude mice
Test [1] relates to A375 human melanoma xenografts. Nature of the test: Example 7 efficacy study in A375 human melanoma xenografts (tumor volume, T/C, TGI). The note with it: 100 mg/kg, p.o., QD × 14 days. As to the method: For efficacy study, agents were tested in the A375 human melanoma xenografts. Compound 118, Compound 156, and Compound 180 were administered to BALB/c nude mice bearing A375 xenografts from day 0 and dosed p.o. twice per day (BID). Compound 141 was administered from day 0 and dosed p.o. twice per day (BID) or dosed p.o. daily (QD) from day 1. Compound 141, Compound 118, Compound 156, and Compound 180 were dosed at 10 mg/kg for 14 days. The known BRAF inhibitor Dabrafenib was used as a positive control. Dabrafenib was administered from day 1 and dosed p.o. daily (QD) for 14 days and dosed at 100 mg/kg.
The A375 tumor cells were maintained in vitro in DMEM medium supplemented with […] and 1% Penicillin-Streptomycin at 37° C. in an atmosphere of 5% CO2 in air. The tumor cells were routinely subcultured twice weekly. The cells growing in an exponential growth phase were harvested and counted for tumor inoculation.
Each mouse was inoculated subcutaneously at the right flank with A375 tumor cells (5×10^6) in 0.2 mL of PBS with Matrigel (PBS: Matrigel=1:1) supplemented for tumor development. Animals were grouped when the average tumor volume reached 246 mm^3 for efficacy study and 390 mm^3 for PKPD study on day 17 after tumor inoculation. The test articles administration and the animal numbers in each group are shown in the above experimental tables.
(§1) Prior to the onset of drug treatment, mice were measured for tumor size in two dimensions using a caliper, and the tumor volume (mm^3) was calculated using formula V=0.5 a×b^2 where a and b are the long and short diameters of the tumor in mm, respectively. Mice were randomized into different treatment groups based on the tumor volume.
(§2) The major endpoint was to see if the tumor growth could be delayed or mice could be cured. The tumor size was then used for calculations of T/C value. The T/C value (in percent) is an indication of antitumor effectiveness; T and C are the mean volumes of the treated and control groups, respectively on specified day.
(§3) TGI was calculated for each group using the formula: TGI (%)=[1−(Ti−T0)/(Ci−C0)]×100; Ti is the average tumor volume of a treatment group on a given day, T0 is the average tumor volume of the treatment group on the day of treatment start, Ci is the average tumor volume of the vehicle control group on the same day with Ti, and C0 is the average tumor volume of the vehicle group on the day of treatment start.

Test [2] deals with A375 human melanoma xenografts. In words: Example 9 efficacy study Part I in A375 human melanoma xenografts (tumor volume, T/C, TGI). To be noted: 100 mg/kg, p.o., QD × 14 days. The protocol: For efficacy study Part I, agents were tested in the A375 human melanoma xenografts. Compound 218 and Compound 157 were administered to BALB/c nude mice bearing A375 xenografts from day 0 and dosed twice a day (BID) for 14 days. Compound 218 and Compound 157 were dosed at 10 mg/kg via p.o.. Dabrafenib was administered from day 1 daily (QD) for 14 days and dosed at 100 mg/kg via p.o..
(§4) The A375 tumor cells were maintained in vitro in DMEM medium supplemented with […] and 1% Penicillin-Streptomycin at 37° C. in an atmosphere of 5% CO2 in air. The tumor cells were routinely subcultured twice weekly. The cells growing in an exponential growth phase were harvested and counted for tumor inoculation.
Each mouse was inoculated subcutaneously at the right flank with A375 cells (5×10^6) in 0.2 mL of PBS supplemented with Matrigel (PBS: Matrigel=1:1) for tumor development. Animals were grouped for the treatment when the average tumor volume reached 243 mm^3 for efficacy study part I and 413 mm^3 for the PK and PD study part I on day 15, and 271 mm^3 for efficacy part II and 443 mm^3 for the PK and PD part II on day 18, and 463 mm^3 for the PK and PD study part III on day 21. The test articles administration and the animal numbers in each group are shown in the above experimental tables.
as §1, §2
TGI was calculated for each group using the formula: TGI (%)=[1−(Ti−T0)/(Ci−C0)]×100; Ti is the average tumor volume of a treatment group on a given day, To is the average tumor volume of the treatment group on the day of treatment start, Ci is the average tumor volume of the vehicle control group on the same day with Ti, and C0 is the average tumor volume of the vehicle group on the day of treatment start.

In test [3] the test system is A375 human melanoma xenografts. In words: Example 8 efficacy study in A375 human melanoma xenografts (tumor volume, T/C, TGI). To be noted: 35 mg/kg, p.o., QD × 21 days. As to the method:
For efficacy study, agents were tested in the A375 human melanoma xenografts model. Compound 8, Compound 26, and Compound 38 were administered to BALB/c nude mice bearing A375 xenografts from day 0 and dosed p.o. twice per day (BID). Compound 8 and Compound 26 were dosed at 10 mg/kg for 21 days. Compound 38 was dosed at 10 mg/kg for 10 days. The known BRAF inhibitor encorafenib was used as a positive control. encorafenib was administered from day 1 and dosed p.o. daily (QD) for 21 days and dosed at 35 mg/kg.
as §4
Each mouse was inoculated subcutaneously at the right flank with A375 cells (5×10^6) in 0.2 mL of PBS supplemented with Matrigel (PBS:Matrigel=1:1) for tumor development. Animals were grouped for treatment 16 days after tumor inoculation when the average tumor volume reached 234 mm^3 for efficacy study and 382 mm^3 for PKPD study. The test articles administration and the animal numbers in each group are shown in the above experimental tables.
as §1, §2, §3

With `CC(C)(C)c1nc(-c2cccc(NS(=O)(=O)c3c(F)cccc3F)c2F)c(-c2ccnc(N)n2)s1` [Dabrafenib, dabrafenib, reference compound], the T/C turned out to be 55.8% in test [1] (PG-D14) and 38.87% in test [2] (PG-D14, treated/control average tumor volume). The molecule also gave a TGI in test [1] (PG-D14) of 54.3%. Further, the “Tumor Size on PG-D14 (mean ± SEM)” value in test [1] (PG-D14) came out at 741 ± 40 mm^3. Also, the “Tumor Volume (mean ± SEM)” value in test [1] (day 0) was found to be 246 ± 10 mm^3; in test [1] (day 3), 394 ± 20 mm^3; in test [1] (day 7), 515 ± 30 mm^3; in test [1] (day 10), 608 ± 21 mm^3; in test [1] (day 14) it was 741 ± 40 mm^3. For the same molecule, the “Tumor Volume Trace Over Time” value came to 243 ± 4 mm^3 in test [2] (Day 0, Mean ± SEM); 370 ± 17 mm^3 in test [2] (Day 3, Mean ± SEM); 445 ± 13 mm^3 in test [2] (Day 7, Mean ± SEM); 475 ± 23 mm^3 in test [2] (Day 10, Mean ± SEM); 521 ± 31 mm^3 in test [2] (Day 14, Mean ± SEM). In addition, the “Tumor Size on PG-D14” value in test [2] (Mean ± SEM) was 521 ± 31 mm^3. Also, the “TGI (Tumor Growth Inhibition)” value in test [2] (PG-D14) amounted to 74.65%.
`COC(=O)N[C@@H](C)CNc1nccc(-c2cn(C(C)C)nc2-c2cc(Cl)cc(NS(C)(=O)=O)c2F)n1` [Encorafenib, encorafenib, reference compound] had a T/C in test [3] (PG-D21) of 14.94%. Moreover, the inhibition of tumour growth (TGI) in test [3] (PG-D21) is listed as 98.67%. Also, the “Tumor Size on PG-D21 (Mean ± SEM)” value in test [3] (PG-D21) was found to be 254 ± 19 mm^3. Further, the “Tumor Volume (mean ± SEM)” value in test [3] (day 0) came out at 234 ± 6 mm^3; in test [3] (day 3), 329 ± 17 mm^3; in test [3] (day 6) it was 347 ± 21 mm^3; in test [3] (day 9) it was 251 ± 20 mm^3; in test [3] (day 13) it was 194 ± 16 mm^3; in test [3] (day 17), 194 ± 15 mm^3. Moreover, in test [3] (day 21), the “Tumor Volume (mean ± SEM)” value is 254 ± 19 mm^3.

Source of the values: patent US20260297060A1, “COMPOUNDS FOR THE DEGRADATION OF MUTANT BRAF” (C4 THERAPEUTICS, INC., priority 2023, published 2026).
